Target: TGF-beta-activated kinase 1 (MAP3K7)
Assay: Inhibition of TAK (unknown origin)

| IC50 [µM] | Structure (SMILES) |
| --- | --- |
| 0.26 | COC(=O)Nc1cc(-c2cnc(OC[C@@](C)(N)CC(C)C)c(C#N)c2)ccn1 |
| 0.12 | COC(=O)Nc1cc(-c2cnc(OC[C@@](C)(N)CC(C)C)c(Cl)c2)ccn1 |
